Measured values published in the supplement of paper PMC10307832.

Assays:
Experiment in all cases: relative viability (nuclei count vs DMSO), 5 days (fraction); higher = more cells survive
[1] = compound: C1/C(=C\C2=CC=CS2)/C(=O)/C(=C/C3=CC=CS3)/C1 + CS(=O)(=O)N1CCN(Cc2cc3nc(-c4cccc5[nH]ncc45)nc(N4CCOCC4)c3s2)CC1 [Pictilisib] (partner 1 µM)
Summary of the method: (§1)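 Medians of duplicate plates are given as relative viability. That measure is the nuclei count in treated wells divided by the count in vehicle wells. Counts were taken on 4× images of lung cancer cell lines in 1536-well plates, 5 days after pin-tool dosing the day after seeding with one drug alone or a fixed anchor-drug dose plus five library-drug doses (not always all listed) in √10 steps.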

[2] = compound: C1/C(=C\C2=CC=CS2)/C(=O)/C(=C/C3=CC=CS3)/C1 + Nc1ncn([C@H]2C[C@H](O)[C@@H](CO)O2)c(=O)n1 [Decitabine] (partner 2 µM)
Summary of the method: as §1

TPCA-1 + Pictilisib = compound: C1=CC(=CC=C1C2=CC(=C(S2)NC(=O)N)C(=O)N)F [TPCA-1] + CS(=O)(=O)N1CCN(Cc2cc3nc(-c4cccc5[nH]ncc45)nc(N4CCOCC4)c3s2)CC1 [Pictilisib] (partner 1 µM)
Summary of the method: as §1

[3] = compound: C[C@]12O[C@H](C[C@]1(O)CO)n1c3ccccc3c3c4c(c5c6ccccc6n2c5c31)CNC4=O [Lestaurtinib] + CS(=O)(=O)N1CCN(Cc2cc3nc(-c4cccc5[nH]ncc45)nc(N4CCOCC4)c3s2)CC1 [Pictilisib] (partner 1 µM)
Summary of the method: as §1

| Cell Line | relative viability ([1]; first compound 0.2 µM) | relative viability ([1]; first compound 0.6325 µM) | relative viability ([1]; first compound 2 µM) | relative viability ([1]; first compound 6.325 µM) | relative viability ([1]; first compound 20 µM) | relative viability ([2]; first compound 0.2 µM) | relative viability ([2]; first compound 0.6325 µM) | relative viability ([2]; first compound 2 µM) | relative viability ([2]; first compound 6.325 µM) | relative viability ([2]; first compound 20 µM) | relative viability (TPCA-1 + Pictilisib; first compound 0.04 µM) | relative viability (TPCA-1 + Pictilisib; first compound 0.1265 µM) | relative viability (TPCA-1 + Pictilisib; first compound 0.4 µM) | relative viability (TPCA-1 + Pictilisib; first compound 1.265 µM) | relative viability (TPCA-1 + Pictilisib; first compound 4 µM) | relative viability ([3]; first compound 0.005 µM) | relative viability ([3]; first compound 0.01581 µM) | relative viability ([3]; first compound 0.05 µM) | relative viability ([3]; first compound 0.1581 µM) | relative viability ([3]; first compound 0.5 µM) |
| --- | --- | --- | --- | --- | --- | --- | --- | --- | --- | --- | --- | --- | --- | --- | --- | --- | --- | --- | --- | --- |
| HCC-44 | 0.624 | 0.605 | 0.693 | 0.591 | 0.79 | 0.946 | 1 | 0.881 | 0.844 | 0.973 | 0.684 | 0.571 | 0.619 | 0.792 | 0.508 | 0.528 | 0.758 | 0.466 | 0.569 | 0.448 |
| SW 1573 | 0.54 | 0.523 | 0.551 | 0.377 | 0.512 | 0.609 | 0.502 | 0.552 | 0.408 | 0.456 | 0.54 | 0.419 | 0.506 | 0.505 | 0.495 | 0.624 | 0.562 | 0.454 | 0.314 | 0.174 |
| PC-3 [JPC-3] | 0.65 | 0.765 | 0.798 | 0.629 | 0.719 |  | 0.792 | 0.849 | 0.694 | 0.815 | 0.8 | 0.714 | 0.81 | 0.746 | 0.612 | 0.77 | 0.736 | 0.555 | 0.606 | 0.408 |
| LOU-NH91 | 0.522 | 0.502 | 0.508 | 0.524 | 0.481 | 0.85 | 0.777 | 0.781 | 0.797 | 0.825 | 0.527 | 0.438 | 0.563 | 0.507 | 0.469 | 0.539 | 0.482 | 0.517 | 0.444 | 0.314 |
| PC-14 | 0.815 | 0.654 | 0.69 | 0.755 | 0.737 | 0.224 | 0.242 | 0.233 | 0.2 | 0.216 | 0.847 | 0.605 | 0.526 | 0.499 | 0.322 | 0.639 | 0.49 | 0.283 | 0.254 | 0.171 |
| NCI-H2087 | 0.78 | 0.959 | 0.986 | 0.552 | 0.822 | 0.251 | 0.286 | 0.36 | 0.305 | 0.224 | 1.23 | 0.785 | 0.823 | 0.626 | 0.203 | 0.872 | 0.745 | 0.53 | 0.689 | 0.322 |
| LU99A | 0.345 | 0.403 | 0.303 | 0.276 | 0.353 | 0.878 | 0.969 | 0.982 | 0.629 | 0.866 | 0.299 | 0.29 | 0.317 | 0.303 | 0.25 | 0.298 | 0.312 | 0.253 | 0.205 | 0.179 |
| BEN | 0.551 | 0.628 | 0.612 | 0.519 | 0.491 | 0.666 | 0.724 | 0.893 | 0.643 | 0.644 | 0.663 | 0.449 | 0.516 | 0.789 | 0.441 | 0.641 | 0.693 | 0.452 | 0.481 | 0.281 |
